Laboratory results from a melting point compilation (Tetko et al.; mined from patent text by program, amines drawn as free bases though some values may be those of a salt).
Residues, ends and D or L forms follow the SMILES beside them.

melting point	Compound
205 to 208 °C	O=C(NC(=O)c1c(F)cccc1F)Nc1cc(Cl)cc(C(F)(F)F)c1Cl
140 to 142 °C	O=C1c2ccccc2-c2cc(Nc3nc(Nc4ccc5c(c4)-c4ccccc4C5=O)nc(-c4cccn4Cc4ccccc4)n3)ccc21
260 to 262 °C	NC1=C(N)C(=O)C(N)=C(N)C1=O
195 to 197 °C	CC(C)(C)OC(=O)N1CCN(CC(=O)O)CC1
208 to 211 °C	O=c1c2ccccc2cc2n1CCS2(=O)=O
207 °C	CCCc1nc(C(O)C(C)(C)C)c(C(=O)O)n1Cc1ccc(-c2ccccc2C(=O)OC(C)(C)C)cc1 (stereo not given)
67 to 69 °C	COc1ccc2c(c1)N(C)C(=O)C2(C)C
202 to 203 °C	Cc1c(NC(=O)c2ccc(-c3cc4ccccc4o3)cc2F)ccc2cc(CN3CCCC3)cnc12
194 to 196 °C	O=c1ccc(C2(O)CCCCC2)c[nH]1
> 310 °C	CC(=O)Nc1ccc(-c2ncc(C(=O)O)c(O)n2)cc1
< 52 °C	CCOC(CSc1ccc2c(c1)CCN2C(C)=O)OCC
115 to 116 °C	COc1cc(-c2nn(C)c(C(F)(F)F)c2Cl)c(F)cc1[N+](=O)[O-]
62 to 64 °C	CCOC(=O)c1csc(C2OC(CO)C(O)C2O)n1 (stereo not given)
155 to 156 °C	CCc1cc(CCc2nc3ccccc3o2)c(=O)[nH]c1CO
48 to 49 °C	O=P(CCc1ccccc1)(OCc1ccccc1)OCc1ccccc1
256 °C	Cc1nc(Nc2ccc(F)cc2)nc(O)c1C
181 to 186 °C	COc1ccc(Nc2ccc(Nc3ncnc4ccsc34)cc2)cc1
185 °C	O=[N+]([O-])c1ccccc1SC1SCC(O)C(O)C1O (stereo not given)
98 to 100 °C	COC1(c2cccc(OCc3ccc(-n4cnc(-c5ccccc5)c4)cc3)c2)CCOCC1
125 to 127 °C	Nc1nc(Cl)cc(OCC2(CO)CCC2)n1
126 to 128 °C	CC1(C)CC(=O)c2c(C3CCC3)sc(-c3nccs3)c2C1
93 to 95 °C	CNC(=S)NCCCCC(NC(=O)C(Cc1cccc2ccccc12)Cc1cccc2ccccc12)C(=O)NC(CC(C)C)C(O)C(=O)OC(C)C (stereo not given)
93 °C	CCCCC(c1c[nH]cn1)c1cccc(CO)c1O (stereo not given)
87 to 88 °C	Clc1nccnc1Oc1ccc2c(c1)OCO2

melting point	Compound
211 to 212 °C	COc1ccc(-c2nc(C(=O)OC(C)(C)C)c(-c3ccncc3)[nH]2)cc1
154 to 155 °C	Cc1cc(SCc2ccc(OCc3ccc(F)cc3)cc2)ccc1OCC(=O)O
187 to 188 °C	N#CCCNC(=O)c1cccc(-c2cccc3nn(Cc4cccc(C(F)(F)F)c4)cc23)c1
224 to 226 °C	O=C(O)CCc1cc2c(c(Br)c1Br)OCC2
215 to 216 °C	COC(=O)C1CCCn2c(=O)[nH]c(=O)n21 (stereo not given)
64 to 67 °C	CN(C)CCC1CCCCN1C1c2ccccc2Oc2ccccc21 (stereo not given)
163 to 165 °C	Nc1ccc(C2=NCCO2)cc1
144 to 146 °C	COC(=O)c1ccc(Cl)cc1NC(=O)CSc1ccc(NC(=O)Cc2ccccc2)cc1
254 to 255 °C	O=c1[nH]c(=Cc2ccc(OCc3ccncc3)cn2)c(=O)[nH]c1=Cc1ccccc1
154 to 158 °C	COc1cc2cc(/C=C/C#N)sc2cc1OC
162 °C	CC(C)(C(=O)NO)N(CCC(=O)O)S(=O)(=O)c1ccc(Oc2ccc(F)cc2)cc1
189 to 191 °C	COc1cc(C(C)=O)ccc1OCCCCN1CCN(c2n[nH]c3cc(Cl)ccc23)CC1
94 to 103 °C	CC(C)n1c(SC(F)(F)C(F)F)nc(-c2ccc(F)cc2)c1-c1ccc(F)cc1
222 °C	Cn1nc(Cl)c2c(=O)n3c(nc21)SCC3
166 to 167 °C	CCOc1cccc(-c2nc3n(n2)Cc2ccccc2-3)c1
145 to 147 °C	CS(=O)(=O)Nn1c(=O)[nH]c2cc(C(F)(F)F)c(-c3ccc(C#N)cc3)cc2c1=O
343 to 345 °C	O=c1[nH]c2cc(Br)ccc2c(O)c1-c1ccccc1
110 to 112 °C	COc1ccc2c(n1)C1(CO2)C(=O)N(CC2CCCO2)c2cccc(Br)c21 (stereo not given)
> 300 °C	COc1ccc(Cn2cnc3c(=O)[nH]c(N)nc32)cc1
144 to 147 °C	COC(=O)C=C(c1ccc(C#N)cc1)n1ccnc1
177 to 179 °C	Nc1ccc(CC(=O)N2CCC(c3[nH]nc4c3C(=O)c3c(NC(=O)NN5CCOCC5)cccc3-4)CC2)cc1
89 to 93 °C	CC(=O)NCCS(=O)C1(Cl)CC2CC(=O)N2C1C(=O)OCc1ccccc1 (stereo not given)
166 to 167 °C	CC(C)OC(=O)N1CCC(NC(=O)N2CCn3c(c(C(N)=O)c(Cl)c3-c3ccccc3)C2)CC1
128 to 133 °C	Cc1ccc(S(=O)(=O)Nc2c(CCCCCCC(=O)O)ccc3ccccc23)cc1

melting point	Compound
255 to 257 °C	O=C(O)c1cc([N+](=O)[O-])cc2ccccc12
177 to 178 °C	CC(C)c1cccc(C(C)C)c1-n1nn[nH]c1=O
72 to 74 °C	COc1ccc(OC)c2c(Nc3cccc(Br)c3)c(C#N)cnc12
104 to 105 °C	CCCCCCCCOc1ccc(-c2ccc(C(=O)Oc3ccc(C(C)(Br)C(=O)OC)cc3)cc2)cc1 (stereo not given)
51 to 52 °C	CN(C(=O)c1ccc2nonc2c1)C1CCC1
166 to 167 °C	O=C1C=CC(O)(c2cc3cc(F)ccc3n2S(=O)(=O)c2ccccc2)C=C1
156 to 157 °C	O=S1(=O)N=CN(C2CC2)c2cccc(F)c21
243 to 245 °C	O=C(c1ccc([N+](=O)[O-])cc1)c1cc2c(c(Cl)c1Cl)OC(C(=O)O)C2 (stereo not given)
150 to 154 °C	O=C(N[C@H]1CN(Cc2ccccc2)[C@@H]2CCO[C@H]12)C(F)(F)F (relative stereo)
235 to 238 °C	CCc1oc2ccccc2c1C(=O)NCc1ccc2c(Br)c(OCc3nnn[nH]3)ccc2c1
143 °C	COc1ccc(Cn2c(=O)oc(=O)c3cc(F)cnc32)cc1
169 to 176 °C	CNC(=O)CN1CCc2ccc(Nc3ncc(Cl)c(Nc4ccc(N5CCOCC5)cc4OC)n3)cc2CC1
154 to 156 °C	CCCCc1cnc(-c2ccc(N)cc2)nc1
108 to 110 °C	C=CCCN1C(C)=C(C(=O)OC)C(c2ccccc2)C(C(=O)OC)=C1C
92 to 95 °C	CN1C(=O)N(C[C@H](CO)[C@@H](CC2CCCC2)C(=O)N2CCCCC2)C(=O)C1(C)C
116 to 118 °C	O=C(CCCl)c1cc2ccccc2o1
224 °C	N=C(NO)c1nc(-c2ccc(C(F)(F)F)cc2)cc(C(F)(F)F)n1
153 to 155 °C	c1ccc(CCC2CCN(Cc3n[nH]c4ccccc34)CC2)cc1
101 °C	Nc1ccc(Oc2ccc(C3CCCCC3)cc2)c(N)c1
232 to 234 °C	Nc1ccc(-c2ccncc2)cc1
98 to 102 °C	CC(C)Oc1cc(N2CCC(C(F)(F)F)CC2=O)c(F)cc1Cl (stereo not given)
106 to 108 °C	COCCOCCOc1cc(N)c(C#N)cc1[N+](=O)[O-]
275 to 277 °C	COc1cccc2c1OCc1nc(C(=O)O)cn1-2
85 to 86 °C	C=Cn1c(C)c(C)c2cnnc(OCc3ccccc3)c21

melting point	Compound
129 °C	OC(CN1CCN(C(c2ccccc2)c2ccccc2)CC1)c1ccc(OCc2ccccc2)cc1 (stereo not given)
228 to 231 °C	COc1ccc2c(c1)c1cc(OC)ccc1c1[nH]c(S(=O)(=O)C(F)(F)F)nc21
85 to 87 °C	CC(C(=O)OC1(C)CCCCC1)c1ccc(N)cc1 (stereo not given)
61 to 63 °C	O=C(NCCCBr)c1cnccc1C(F)(F)F
103 to 105 °C	C#CC[C@H](c1nc2cc(Cl)ccc2c(=O)n1Nc1ccccc1)N(CCCNC(=O)OCc1ccccc1)C(=O)c1cccc(Cl)c1F
63.5 to 64 °C	COC(=O)[C@H](Cc1ccccc1)NC(=S)Cc1cc(C)ccc1C
125 to 126 °C	COc1ccc(C(=O)NCCCCOc2ccc(-n3ccnc3)cc2)cc1
233 to 235 °C	COC(=O)C(Cc1ccccc1)NC(=O)C(CC(=O)O)NC(=O)CN (stereo not drawn) (H-Gly-Asp-Phe-OMe; configuration not given here)
195 °C	COc1cc(C(F)(F)F)cc(Cl)c1-n1nc(C#N)c(S(=O)C(F)(F)F)c1N (stereo not given)
181 to 182 °C	CCCCN(Cc1ccc(-c2ccccc2C(=N)NO)cc1)c1ncccc1C(=O)OCC
93 to 94 °C	COc1ccccc1N1CCN(CC(O)COc2cc(C)c(OCc3ccccc3)c(C)c2)CC1 (stereo not given)
174 to 175 °C	COC(=O)c1[nH]c2c(C)ccc(C)c2c1C=O
126 to 128 °C	COCCOCONC(=O)c1nc(-c2ccc(Cl)c(OC)c2F)cc(N)c1Cl
155 to 156 °C	CCOC(=O)C(=O)Nc1cc(OC)cc(NC(=O)C(=O)OCC)n1
82 to 84 °C	O=C(NC1CCN(CCCCc2ccccc2)C1)C12CC3CC(CC(C3)C1)C2 (stereo not given)
110 to 115 °C	CC(C)[C@H](NC(=O)Cc1cc(F)cc(F)c1)C(=O)N[C@@H]1C(=O)Nc2ccccc2S[C@@H]1c1ccccc1
246 to 247 °C	Cn1c(-c2ccccc2Sc2nc3ccccc3[nH]2)nc2ccccc21
181 to 184 °C	CC(C)(C)c1nc(C(=O)c2nccs2)nc(C(C)(C)C)c1O
108 to 113 °C	COc1cc(OCc2ccccn2)ccc1/C=C/c1cc(/C=C/c2cccc3[nH]ccc23)n[nH]1
164 to 167 °C	O=C(NCc1cccnc1)c1ccc2n1Cc1ccccc1N(C(=O)c1ccc(-c3ccccc3Cc3nnn[nH]3)cc1)C2
262 to 264 °C	COc1ccc(-c2ccc3[nH]c(=O)ccc3c2)cc1
123 to 125 °C	OC(c1cccs1)C1CCN(CCc2ccccc2)CC1 (stereo not given)

Compound	melting point
O=C1CCN(C(=O)C(Cc2ccccc2)NC(=O)c2cc3cc(Cl)ccc3[nH]2)CC1 (stereo not given)	258 to 261 °C
Cc1cc(C2=NOC(c3cc(Cl)cc(Cl)c3)(C(F)(F)F)C2)ccc1C(=O)NCO (stereo not given)	69 to 73.5 °C
O=C(c1ccccc1)C(Br)(Br)Br	63 to 64 °C
CNCC(O)c1ccc(Br)cc1 (stereo not given)	91.5 to 93.7 °C
O=c1c2ccccc2nnn1CCCN1CC=C(c2c[nH]c3ccccc23)CC1	189 °C
CN(C)CCN(C)C(=O)Cc1ccc(NC(=O)c2ccc(-c3ccccc3)cc2)cc1	135 to 136 °C
